Experimental data published in US20060263802A1 (priority 2003, published 2006).

Columns and labels:
Type in all cases: binding
[1] = test system: human monoclonal antibody CRJB
[2] = test system: human monoclonal antibody CR57
[3] = test system: human monoclonal antibody CRJA
[4] = test system: human monoclonal antibody CRJB; remark: listed apart in the source
[5] = test system: human monoclonal antibody CR57; remark: listed apart in the source
[6] = test system: human monoclonal antibody CRJA; remark: listed apart in the source

| Sequence | Binding of CRJB to linear peptide (PEPSCAN-ELISA signal) [1] | Binding of CR57 to linear peptide (PEPSCAN-ELISA signal) [2] | Binding of CRJA to linear peptide (PEPSCAN-ELISA signal) [3] | Binding of CRJB (10 μg/ml) to looped/cyclic peptide (PEPSCAN-ELISA) [4] | Binding of CR57 (10 μg/ml) to looped/cyclic peptide (PEPSCAN-ELISA) [5] | Binding of CRJA (10 μg/ml) to looped/cyclic peptide (PEPSCAN-ELISA) [6] | Binding of human monoclonal antibody CRJB to linear peptide (PEPSCAN-ELISA signal) [1] | Binding of human monoclonal antibody CR57 to linear peptide (PEPSCAN-ELISA signal) [2] | Binding of human monoclonal antibody CRJA to linear peptide (PEPSCAN-ELISA signal) [3] | Binding of CRJB to looped/cyclic peptide (PEPSCAN-ELISA signal) [4] | Binding of CR57 to looped/cyclic peptide (PEPSCAN-ELISA signal) [5] | Binding of CRJA to looped/cyclic peptide (PEPSCAN-ELISA signal) [6] | Binding of CRJB (10 μg/ml) to looped/cyclic peptide (PEPSCAN-ELISA signal) [4] | Binding of CR57 (10 μg/ml) to looped/cyclic peptide (PEPSCAN-ELISA signal) [5] | Binding of CRJA (10 μg/ml) to looped/cyclic peptide (PEPSCAN-ELISA signal) [6] |
| --- | --- | --- | --- | --- | --- | --- | --- | --- | --- | --- | --- | --- | --- | --- | --- |
| RSDEIEHLVVEELVR | 138 | 100 | 93 | 93 | 136 | 107 |  |  |  |  |  |  |  |  |  |
| NQVSGVDLGLPNWGK |  |  |  |  |  |  | 138 | 78 | 103 | 128 | 84 | 79 |  |  |  |
| KDGDEAEDFVEVHLP |  |  |  |  |  |  | 93 | 72 | 62 | 71 | 71 | 42 |  |  |  |
| SCPNNLVVEDEGCTN | 114 | 83 | 88 |  |  |  |  |  |  |  |  |  | 69 | 82 | 85 |
| KAYTIFNKTLMEADA | 123 | 101 | 76 | 92 | 137 | 104 |  |  |  |  |  |  |  |  |  |
| MELKVGYILAIKMNG | 141 | 76 | 92 |  |  |  |  |  |  |  |  |  | 93 | 71 | 66 |
| ELLESSVIPLVHPLA | 133 | 90 | 85 | 88 | 112 | 73 |  |  |  |  |  |  |  |  |  |
| CRAAYNWKMAGDPRY | 118 | 87 | 113 |  |  |  |  |  |  |  |  |  | 68 | 107 | 111 |
| MDGTWVAMQTSNETK | 97 | 97 | 85 | 82 | 114 | 90 |  |  |  |  |  |  |  |  |  |
| SETCGFVDERGLYKS | 116 | 33 | 71 | 78 | 58 | 56 |  |  |  |  |  |  |  |  |  |
| TKSVSFRRLSHLRKL | 125 | 83 | 103 | 94 | 88 | 91 |  |  |  |  |  |  |  |  |  |
| PSTVFKDGDEAEDFV |  |  |  |  |  |  | 143 | 104 | 105 | 101 | 118 | 113 |  |  |  |
| YTNFVGYVTTTFKRK | 104 | 51 | 76 |  |  |  |  |  |  |  |  |  | 90 | 71 | 72 |
| KTLMEADAHYKSVRT | 98 | 91 | 102 | 97 | 125 | 92 |  |  |  |  |  |  |  |  |  |
| RGKRASKGSETCGFV | 104 | 75 | 87 | 68 | 101 | 102 |  |  |  |  |  |  |  |  |  |
| GVLGLRLMDGTWVAM | 148 | 89 | 107 | 83 | 118 | 104 |  |  |  |  |  |  |  |  |  |
| AAYNWKMAGDPRYEE | 106 | 68 | 78 |  |  |  |  |  |  |  |  |  | 90 | 104 | 78 |
| SGFSYMELKVGYILA | 132 | 79 | 105 |  |  |  |  |  |  |  |  |  | 83 | 74 | 69 |
| PDACRAAYNWKMAGD | 124 | 61 | 93 |  |  |  |  |  |  |  |  |  | 76 | 97 | 96 |
| HPHVNGVFFNGIILG | 138 | 104 | 89 | 99 | 104 | 91 |  |  |  |  |  |  |  |  |  |
| LYKSLKGACKLKLCG | 136 | 93 | 94 | 79 | 91 | 107 |  |  |  |  |  |  |  |  |  |
| IDIHHLSCPNNLVVE | 102 | 69 | 61 |  |  |  |  |  |  |  |  |  | 59 | 55 | 55 |
| AYNWKMAGDPRYEES | 94 | 96 | 90 |  |  |  |  |  |  |  |  |  | 77 | 96 | 72 |
| AHYKSVRTWNEILPS | 160 | 112 | 106 | 106 | 106 | 104 |  |  |  |  |  |  |  |  |  |
